Here are results for one compound from US20230278981A1, “DICHLOROPHENOL HSD17B13 INHIBITORS AND USES THEREOF” (INIPHARM, INC., priority 2020, published 2023).

The assay has as its target HSD17B13 (Homo sapiens (Human), UniProt Q7Z5P4). As to the kind of experiment: LC/MS estrone detection assay: conversion of estradiol to estrone by HSD17B13. It counts as biochemical. As to conditions: 4 μM estradiol, 6 mM NAD+, 30 nM HSD17B13 enzyme (E. coli expressed His-tagged), 2 hours at 26.5° C. The procedure, abridged: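 His-tagged E. coli-expressed HSD17B13 (30 nM) with 4 μM estradiol and 6 mM NAD+ in 1 M potassium phosphate pH 7.4, 0.5% DMSO, 2 h at 26.5° C. Estrone and estradiol quantified by LC-MS/MS after MeCN quench with D4-estrone internal standard; activity as % of uninhibited enzyme, IC50 by four-parameter fit, duplicates.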

HSD17B13, sequence (Q7Z5P4 20-300): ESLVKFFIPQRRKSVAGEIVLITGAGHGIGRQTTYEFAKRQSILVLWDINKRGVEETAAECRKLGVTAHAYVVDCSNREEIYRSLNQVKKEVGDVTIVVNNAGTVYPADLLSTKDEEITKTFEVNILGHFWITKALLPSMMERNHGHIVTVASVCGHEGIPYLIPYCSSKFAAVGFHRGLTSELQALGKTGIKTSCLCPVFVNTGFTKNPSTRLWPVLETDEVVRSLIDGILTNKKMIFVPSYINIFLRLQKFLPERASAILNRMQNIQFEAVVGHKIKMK

Compound `Cc1nc2c(F)ccc(NC(=O)c3cc(Cl)c(O)c(Cl)n3)c2c(=O)n1[C@H]1CC[C@@H]1c1ccccc1` [Example 207, 4,6-dichloro-N-(8-fluoro-2-methyl-4-oxo-3-((1S,2R)-2-phenylcyclobutyl)-3,4-dihydroquinazolin-5-yl)-5-hydroxypicolinamide] showed an IC50 of 100 to 500 nM.

For orientation: IC50 means the concentration needed to halve the response being measured. The low end stands for greater potency, the high end for weaker potency.
